From ChEMBL document CHEMBL5154810, “Development of Potent Immune Modulators Targeting Stimulator of Interferon Genes Receptor” (J Med Chem, 2022)
Activity calls are given as the source filed them. No cut-off for these calls is given here.

Assays:
[1] = Activation of IRF-mediated immune response in human THP1-Dual KO-STING cells co-expressing ISRE reporter assessed as normalized luciferase gene expression by measuring relative luciferase units at 50 uM incubated for 24 hrs by QUANTI Luc based microplate reader method; assay type: functional
[2] = target: T1, Stimulator of interferon genes protein (Homo sapiens, UniProt Q86WV6); assay: Binding affinity to recombinant human His-tagged STING by measuring fluorescent signals in the presence of d2 labelled STING wild type ligand by HTRF based microplate reader analysis
T1 sequence (Q86WV6 whole entry): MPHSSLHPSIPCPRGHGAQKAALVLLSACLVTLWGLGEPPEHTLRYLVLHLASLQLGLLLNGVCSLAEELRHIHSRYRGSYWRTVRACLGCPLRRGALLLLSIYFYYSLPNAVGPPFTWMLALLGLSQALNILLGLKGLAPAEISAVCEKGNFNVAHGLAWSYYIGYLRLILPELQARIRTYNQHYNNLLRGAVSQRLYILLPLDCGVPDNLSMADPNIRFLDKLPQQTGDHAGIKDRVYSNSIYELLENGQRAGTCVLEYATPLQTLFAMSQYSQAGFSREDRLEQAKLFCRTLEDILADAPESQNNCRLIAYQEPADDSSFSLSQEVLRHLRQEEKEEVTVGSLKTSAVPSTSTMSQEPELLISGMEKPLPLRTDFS

[3] = target: T2, Stimulator of interferon genes protein (Mus musculus) (UniProt Q3TBT3); assay: Binding affinity to STING in mouse RAW264.7 assessed as thermal stabilization at 48 to 55 degC at 100 nM incubated for 4 hrs by western blotting based CETSA assay; assay type: cell-based; conditions: filed as activator
T2 sequence (whole entry): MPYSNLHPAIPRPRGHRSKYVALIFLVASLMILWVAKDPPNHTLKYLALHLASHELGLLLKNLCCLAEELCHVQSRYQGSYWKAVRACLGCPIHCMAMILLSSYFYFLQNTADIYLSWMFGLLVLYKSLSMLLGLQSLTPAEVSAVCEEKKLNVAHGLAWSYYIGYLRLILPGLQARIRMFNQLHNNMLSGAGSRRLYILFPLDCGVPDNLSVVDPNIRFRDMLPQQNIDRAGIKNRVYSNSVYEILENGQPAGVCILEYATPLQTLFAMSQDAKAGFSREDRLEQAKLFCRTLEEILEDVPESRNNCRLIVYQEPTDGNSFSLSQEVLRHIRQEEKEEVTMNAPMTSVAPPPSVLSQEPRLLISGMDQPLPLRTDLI

Cytochrome P450 2D6 = Cytochrome P450 2D6 (Homo sapiens, UniProt P10635); assay: Inhibition of CYP2D6 in human liver microsomes using dextromethorphan as cocktail probe substrate preincubated for 5 mins followed by NADPH addition and meaured after 30 mins by HPLC-MS/MS analysis; assay type: ADME, Microsome
Sequence of Cytochrome P450 2D6 (P10635 whole entry): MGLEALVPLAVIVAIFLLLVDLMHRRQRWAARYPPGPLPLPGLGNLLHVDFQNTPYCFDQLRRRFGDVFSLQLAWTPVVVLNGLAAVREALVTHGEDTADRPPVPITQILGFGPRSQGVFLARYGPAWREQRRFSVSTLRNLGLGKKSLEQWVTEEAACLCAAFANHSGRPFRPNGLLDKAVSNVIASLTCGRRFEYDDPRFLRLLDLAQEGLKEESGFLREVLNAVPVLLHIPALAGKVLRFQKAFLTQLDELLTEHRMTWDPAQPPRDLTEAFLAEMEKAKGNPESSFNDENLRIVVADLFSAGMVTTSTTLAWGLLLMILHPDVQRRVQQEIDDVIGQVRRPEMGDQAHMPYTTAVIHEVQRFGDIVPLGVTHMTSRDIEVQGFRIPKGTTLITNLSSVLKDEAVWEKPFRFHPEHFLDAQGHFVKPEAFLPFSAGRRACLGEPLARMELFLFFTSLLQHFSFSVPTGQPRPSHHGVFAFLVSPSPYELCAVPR

Cytochrome P450 3A4 = Cytochrome P450 3A4 (Homo sapiens, UniProt P08684); assay: Inhibition of CYP3A4 in human liver microsomes using […] as cocktail probe substrate preincubated for 5 mins followed by NADPH addition and measured after 30 mins by HPLC-MS/MS analysis; assay type: ADME, Microsome
Sequence of Cytochrome P450 3A4 (P08684 whole entry): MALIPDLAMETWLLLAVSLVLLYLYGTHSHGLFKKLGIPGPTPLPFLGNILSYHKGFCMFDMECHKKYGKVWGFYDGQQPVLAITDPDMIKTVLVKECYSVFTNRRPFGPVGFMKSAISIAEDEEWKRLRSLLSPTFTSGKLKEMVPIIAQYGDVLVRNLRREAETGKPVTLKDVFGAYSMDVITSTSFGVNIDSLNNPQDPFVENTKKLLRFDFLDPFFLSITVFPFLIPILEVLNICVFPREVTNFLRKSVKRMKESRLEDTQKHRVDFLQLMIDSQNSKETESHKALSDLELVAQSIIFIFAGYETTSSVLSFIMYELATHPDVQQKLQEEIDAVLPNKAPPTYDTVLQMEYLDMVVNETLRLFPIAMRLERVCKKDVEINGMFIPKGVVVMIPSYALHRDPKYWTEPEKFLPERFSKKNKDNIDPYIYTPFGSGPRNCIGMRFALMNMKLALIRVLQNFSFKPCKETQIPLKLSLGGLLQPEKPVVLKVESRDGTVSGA

[4] = Stability in mouse liver microsome assessed as parent compound remaining at 1 uM measured after 30 mins in the presence of NADPH by HPLC-MS/MS analysis; assay type: ADME; conditions: liver microsomes, read-out: Stability
[5] = Stability in human liver microsome assessed as parent compound remaining at 1 uM measured after 30 mins in the presence of NADPH by HPLC-MS/MS analysis; assay type: ADME; conditions: liver microsomes, read-out: Stability
[6] = Stability in human plasma assessed as parent compound remaining at 5 uM measured after 4 hrs by HPLC-MS/MS analysis; assay type: ADME, cell-free; conditions: read-out: Stability
[7] = target: T1, Stimulator of interferon genes protein; assay: Activation of STING mediated immune response in human THP-1 cells assessed as induction of IFNbeta secretion measured after 24 hrs by ELISA; assay type: cell-based
[8] = target: T1, Stimulator of interferon genes protein; assay: Activation of STING mediated immune response in human THP-1 cells assessed as induction of IP-10 secretion measured after 24 hrs by ELISA; assay type: cell-based; conditions: filed as activator, dose 0.41-100 nM, DDE = dose-dependent effect
[9] = target: T2, Stimulator of interferon genes protein (Mus musculus); assay: Activation of STING mediated immune response in mouse RAW264.7 cells assessed as induction of IFNbeta secretion measured after 24 hrs by ELISA; assay type: cell-based; conditions: filed as activator, dose 0.32-5000 nM, DDE = dose-dependent effect
[10] = target: T1, Stimulator of interferon genes protein; assay: Activation of STING pathway in human THP-1 cells assessed as increase in TBK1 phosphorylation at 2 nM incubated for 6 hrs by Western blotting analysis; assay type: cell-based; conditions: filed as activator
THP-1 [11] = assay: Upregulation of IFNB in human THP-1 cells at 100 nM measured after 6 hrs by RT-PCR analysis; assay type: functional, cell-based
THP-1 [12] = assay: Upregulation of CXCL10 in human THP-1 cells at 100 nM measured after 6 to 18 hrs by RT-PCR analysis; assay type: functional, cell-based; conditions: time 6-18 hrs
THP-1 [13] = assay: Upregulation of IFIT3 in human THP-1 cells at 100 nM measured after 6 to 18 hrs by RT-PCR analysis; assay type: functional, cell-based; conditions: time 6-18 hrs
THP-1 [14] = assay: Upregulation of IFITM1 in human THP-1 cells at 100 nM measured after 6 to 18 hrs by RT-PCR analysis; assay type: functional, cell-based; conditions: time 6-18 hrs
THP-1 [15] = assay: Upregulation of OAS1 in human THP-1 cells at 100 nM measured after 6 to 18 hrs by RT-PCR analysis; assay type: functional, cell-based; conditions: time 6-18 hrs
THP-1 [16] = assay: Upregulation of ISG15 in human THP-1 cells at 100 nM measured after 6 to 18 hrs by RT-PCR analysis; assay type: functional, cell-based; conditions: time 6-18 hrs
[17] = Solubility of the compound in DMSO at 50 to 100 uM incubated for 72 hrs; assay type: physicochemical; conditions: dose 50-100 µM
CT26 [18] = assay: Antitumor activity against CT26 cells injected in BALB/c syngenic mouse model assessed as reduction in tumor growth at 0.015 to 1.5 mg/kg, iv measured every 2 to 3 days for 17 days; assay type: functional, organism-based; conditions: dose 0.015-1.5 mg/kg, time 17.0 day
CT26 [19] = assay: Antitumor activity against CT26 cells injected in BALB/c syngenic mouse model assessed as tumor growth inhibition at 1.5 mg/kg, iv measured after 17 days; assay type: functional; conditions: CT26, 408 h, time 17 day, read-out: TGI
[20] = target: Nuclear factor NF-kappa-B complex (Homo sapiens) (UniProt Q00653+P19838+Q04206); assay: Activation of NF-kappaB mediated pro-inflammatory effector proteins in human THP-1 cells at 2 to 10 nM incubated for 4 hrs by western blot analysis; assay type: cell-based; conditions: filed as activator, dose 2-10 nM
Sequence of Nuclear factor NF-kappa-B complex (Homo sapiens) (P19838 whole entry, looked up): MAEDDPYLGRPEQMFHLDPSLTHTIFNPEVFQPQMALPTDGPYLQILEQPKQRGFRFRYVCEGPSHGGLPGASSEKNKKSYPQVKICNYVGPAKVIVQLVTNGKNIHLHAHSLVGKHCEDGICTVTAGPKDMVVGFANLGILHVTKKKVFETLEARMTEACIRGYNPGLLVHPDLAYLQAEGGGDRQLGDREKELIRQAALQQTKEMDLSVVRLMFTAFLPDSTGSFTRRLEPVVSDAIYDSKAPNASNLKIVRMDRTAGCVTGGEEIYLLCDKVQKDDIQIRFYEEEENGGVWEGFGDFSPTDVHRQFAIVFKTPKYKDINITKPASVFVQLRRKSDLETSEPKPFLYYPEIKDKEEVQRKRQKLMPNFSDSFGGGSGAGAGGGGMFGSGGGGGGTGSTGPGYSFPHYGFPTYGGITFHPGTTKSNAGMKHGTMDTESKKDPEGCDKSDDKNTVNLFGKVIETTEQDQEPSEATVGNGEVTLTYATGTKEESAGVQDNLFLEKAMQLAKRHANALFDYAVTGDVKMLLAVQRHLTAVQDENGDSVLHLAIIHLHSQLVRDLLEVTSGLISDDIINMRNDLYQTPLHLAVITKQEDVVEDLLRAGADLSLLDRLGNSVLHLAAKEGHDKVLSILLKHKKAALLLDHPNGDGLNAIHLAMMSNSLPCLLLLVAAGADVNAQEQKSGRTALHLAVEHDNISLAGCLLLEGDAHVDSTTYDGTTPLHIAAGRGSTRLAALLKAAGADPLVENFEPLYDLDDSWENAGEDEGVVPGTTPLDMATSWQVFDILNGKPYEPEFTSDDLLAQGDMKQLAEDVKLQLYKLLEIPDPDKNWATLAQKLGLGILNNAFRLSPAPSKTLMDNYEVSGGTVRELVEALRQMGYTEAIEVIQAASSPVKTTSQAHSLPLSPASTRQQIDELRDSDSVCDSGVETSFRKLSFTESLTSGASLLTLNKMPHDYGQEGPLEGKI
Sequence of Nuclear factor NF-kappa-B complex (Homo sapiens) (Q00653 whole entry, looked up): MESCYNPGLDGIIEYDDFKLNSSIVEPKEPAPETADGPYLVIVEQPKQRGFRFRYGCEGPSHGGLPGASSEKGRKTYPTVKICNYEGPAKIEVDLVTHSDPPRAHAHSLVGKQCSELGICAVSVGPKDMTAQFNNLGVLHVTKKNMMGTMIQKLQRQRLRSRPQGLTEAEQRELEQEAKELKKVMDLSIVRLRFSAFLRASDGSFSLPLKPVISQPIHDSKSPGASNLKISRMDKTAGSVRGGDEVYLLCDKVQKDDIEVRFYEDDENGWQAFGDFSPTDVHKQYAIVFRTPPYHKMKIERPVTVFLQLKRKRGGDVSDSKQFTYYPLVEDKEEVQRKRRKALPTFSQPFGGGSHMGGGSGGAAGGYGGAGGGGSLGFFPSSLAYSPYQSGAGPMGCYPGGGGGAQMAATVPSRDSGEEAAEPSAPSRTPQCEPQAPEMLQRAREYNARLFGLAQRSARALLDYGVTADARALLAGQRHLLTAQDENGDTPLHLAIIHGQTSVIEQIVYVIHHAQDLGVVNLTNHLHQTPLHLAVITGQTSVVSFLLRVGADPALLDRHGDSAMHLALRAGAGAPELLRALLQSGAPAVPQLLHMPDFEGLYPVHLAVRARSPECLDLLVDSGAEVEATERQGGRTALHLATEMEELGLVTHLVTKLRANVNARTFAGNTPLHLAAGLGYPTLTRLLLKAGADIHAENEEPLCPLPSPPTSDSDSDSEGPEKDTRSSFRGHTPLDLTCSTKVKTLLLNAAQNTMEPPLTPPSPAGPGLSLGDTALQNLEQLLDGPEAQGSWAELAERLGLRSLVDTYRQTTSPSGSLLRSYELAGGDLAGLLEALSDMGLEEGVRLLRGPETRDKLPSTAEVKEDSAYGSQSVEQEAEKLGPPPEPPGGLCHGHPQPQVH
Sequence of Nuclear factor NF-kappa-B complex (Homo sapiens) (Q04206 whole entry, looked up): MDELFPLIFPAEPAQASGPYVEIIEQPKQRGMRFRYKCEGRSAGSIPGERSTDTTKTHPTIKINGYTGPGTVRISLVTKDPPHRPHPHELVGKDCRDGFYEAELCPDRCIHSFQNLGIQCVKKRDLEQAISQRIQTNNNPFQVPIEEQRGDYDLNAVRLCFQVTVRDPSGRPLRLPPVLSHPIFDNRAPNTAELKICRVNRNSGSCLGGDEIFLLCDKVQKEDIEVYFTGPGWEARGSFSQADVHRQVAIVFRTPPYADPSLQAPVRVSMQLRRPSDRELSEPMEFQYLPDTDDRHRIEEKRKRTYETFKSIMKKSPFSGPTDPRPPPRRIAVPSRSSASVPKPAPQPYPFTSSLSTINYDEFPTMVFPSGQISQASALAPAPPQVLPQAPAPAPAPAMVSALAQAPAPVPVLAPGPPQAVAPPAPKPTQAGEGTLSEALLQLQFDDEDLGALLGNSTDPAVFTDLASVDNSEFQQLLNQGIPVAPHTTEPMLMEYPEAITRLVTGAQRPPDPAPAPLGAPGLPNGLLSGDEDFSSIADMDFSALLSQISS

[21] = Terminal half life in BALB/c mouse at 3 mg/kg, iv by LC-MS/MS analysis; assay type: ADME, organism-based; conditions: in vivo, read-out: beta t1/2 (converted)
[22] = Volume of distribution at steady state in BALB/c mouse at 3 mg/kg, iv by LC-MS/MS analysis; assay type: ADME, organism-based; conditions: in vivo, read-out: Vdss
[23] = Clearance in BALB/c mouse at 3 mg/kg, iv by LC-MS/MS analysis; assay type: ADME, organism-based; conditions: in vivo, iv, 3 mg/kg
[24] = AUClast in BALB/c mouse at 3 mg/kg, iv by LC-MS/MS analysis; assay type: ADME, organism-based; set-up: time 0 - last, dose 3 mg/kg, route iv; conditions: in vivo
[25] = AUCinfinity in BALB/c mouse at 3 mg/kg, iv by LC-MS/MS analysis; assay type: ADME, organism-based; set-up: time infinity, dose 3 mg/kg, route iv; conditions: in vivo
[26] = Toxicity in BALB/c mouse xenografted with mouse CT26 cells assessed as effect on body weight at 1.5 mg/kg, iv measured after 8 days; assay type: organism-based; conditions: in vivo, 192 h, time 8 day
[27] = target: T1, Stimulator of interferon genes protein; assay: Activation of STING pathway in human THP1-cells assessed as increase in STING phosphorylation at 2 nM incubated for 6 hrs by Western blotting analysis; assay type: cell-based; conditions: THP-1, filed as activator
[28] = target: T1, Stimulator of interferon genes protein; conditions: THP1-Dual, filed as activator, dose 50.0 µM, time 24.0 hrs

CCn1nc(C)cc1C(=O)Nc1nc2cc(C(N)=O)cc(OC)c2n1C/C=C/Cn1c(NC(=O)c2cc(C)nn2CC)nc2cc(C(N)=O)cc(OCCCNC(=O)OC(C)(C)C)c21
RLU [1]: 1.1
IC50 [2]: 0.0623 nM
Activity [3]: Active
IC50 (Cytochrome P450 2D6): > 100000 nM
IC50 (Cytochrome P450 3A4): 4200 nM
remaining at 0.5 h, 1 µM [4]: 38.7%
remaining at 0.5 h, 1 µM [5]: 11.2%
remaining at 4 h, 5 µM [6]: > 99%
EC50 [7]: 2 nM
Activity ([7]; filed as activator, dose 0.12-2000 nM, DDE = dose-dependent effect): Dde
Activity [8]: Dde
Activity [9]: Dde
Activity [10]: Active
Activity (THP-1 [11]): Active
Activity (THP-1 [12]): Active
Activity (THP-1 [13]): Active
Activity (THP-1 [14]): Active
Activity (THP-1 [15]): Active
Activity (THP-1 [16]): Active
solubility [17]: Soluble
Activity (CT26 [18]): Active
inhibition in vivo at 1.5 mg/kg (CT26 [19]): 57%
Activity [20]: Active
half-life [21]: 10.5 h
Vd [22]: 17.7 L/kg
CL [23]: 2.12 L/h/kg
AUC(0-t) [24]: 4.2 µg·h/mL
AUC [25]: 4.78 µg·h/mL
Activity [26]: Non-Toxic
Activity [27]: Active
RLU [28]: 102
